Experimental data reported in US9567338B2, “Pyrazolo[3,4-d]pyrimidine compounds, their preparation and use as sigma ligands” (LABORATORIOS DEL DR. ESTEVE S.A., priority 2011, dated 2017).

Molecular target: σ1-receptor (Cavia porcellus (Guinea pig), UniProt Q60492)
Experiment: σ1-receptor binding assay, [3H]-(+)-pentazocine displacement in brain membranes
Conditions: radioligand [3H]-(+)-pentazocine 5.0 nM; for % Displacement (10^−6 M): compound at 10^−6 M
Procedure: Guinea pig brains were homogenized in 10 vols. (w/v) of Tris-HCl 50 mM 0.32 M sucrose, pH 7.4, with a Kinematica Polytron PT 3000 at 15000 r.p.m. for 30 s. The homogenate was centrifuged at 1000 g for 10 min at 4° C. and the supernatants collected and centrifuged again at 48000 g for 15 min at 4° C. The pellet was resuspended in 10 volumes of Tris-HCl buffer (50 mM, pH 7.4), incubated at 37° C. for 30 min, and centrifuged at 48000 g for 20 min at 4° C. Following this, the pellet was resuspended in fresh Tris-HCl buffer (50 mM, pH 7.4) and stored on ice until use.
The radioligand used was [^3H]-(+)-pentazocine at 5.0 nM and the final volume was 200 μl. The incubation was initiated with the addition of 100 μA of membrane at a final tissue concentration of approximately 5 mg tissue net weight/mL and the incubation time was 150 m. at 37° C. After incubation, the membranes were collected onto pretreated glass fiber filterplate (MultiScreen-FC, Millipore), with polyethylenimine 0.1%. The filters were washed two times with 200 μA of washing buffer (50 mM Tris CI, pH=7.4) and then 25 μl of Ecoscint H liquid scintillation cocktail were added. […] Nonspecific binding was determined with 1 μM haloperidol.

Sequence of σ1-receptor (Q60492 whole entry): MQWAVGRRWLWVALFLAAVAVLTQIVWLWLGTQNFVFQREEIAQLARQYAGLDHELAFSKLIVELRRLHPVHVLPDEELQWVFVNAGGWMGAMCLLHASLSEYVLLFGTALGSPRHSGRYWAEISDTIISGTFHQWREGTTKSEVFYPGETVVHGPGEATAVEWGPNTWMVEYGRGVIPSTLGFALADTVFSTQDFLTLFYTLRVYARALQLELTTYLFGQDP

| Structure (SMILES) | % Displacement (10^−6 M) [%] | Ki [µM] | Ki (maleate) [µM] |
| --- | --- | --- | --- |
| Cl.O=C(Nc1ncnc2c1cnn2CCN1CCCCC1)C1CCCCC1 [Example 6, N-(1-(2-(Piperidin-1-yl)ethyl)-1H-pyrazolo[3,4-d]pyrimidin-4-yl)cyclohexanecarboxamide hydrochloride] | 78.6 | 0.0731 |  |
| CC(C)(C)c1cc(C(=O)Nc2ncnc3c2cnn3CCN2CCCCC2)cc(C(C)(C)C)c1.Cl [Example 9, 3,5-di-tert-Butyl-N-(1-(2-(piperidin-1-yl)ethyl)-1H-pyrazolo[3,4-d]pyrimidin-4-yl)benzamide hydrochloride] | 49.50 | 0.7 |  |
| CC(C)N(CCn1ncc2c(NC(=O)C3CCCCC3)ncnc21)C(C)C.O=C(O)/C=C\C(=O)O [Example 16, N-(1-(2-(Diisopropylamino)ethyl)-1H-pyrazolo[3,4-d]pyrimidin-4-yl)cyclohexanecarboxamide maleate] | 68.2 | 0.244 |  |
| CC(C)N(CCn1ncc2c(NC(=O)C34CC5CC(CC(C5)C3)C4)ncnc21)C(C)C.O=C(O)/C=C\C(=O)O [Example 18, N-(1-(2-(Diisopropylamino)ethyl)-1H-pyrazolo[3,4-d]pyrimidin-4-yl)-1-adamantylcarboxamide maleate] | 90.2 | 0.0567 |  |
| CC(C)N(CCn1ncc2c(NC(=O)C34C5CC6CC3CC64C5)ncnc21)C(C)C.Cl [Example 21, N-(1-(2-(Diisopropylamino)ethyl)-1H-pyrazolo[3,4-d]pyrimidin-4-yl)-1-noradamantylcarboxamide hydrochloride] | 90.8 | 0.055 |  |
| Cl.O=C(Nc1ncnc2c1cnn2CCN1CCCCCC1)C12C3CC4CC1CC42C3 [Example 22, N-(1-(2-(Azepan-1-yl)ethyl)-1H-pyrazolo[3,4-d]pyrimidin-4-yl) 1-noradamantylcarboxamide hydrochloride] | 97.2 | 0.015 |  |
| CC(C)N(CCn1ncc2c(NC(=O)C3CCCC3)ncnc21)C(C)C.O=C(O)/C=C\C(=O)O [Example 28, N-(1-(2-(Diisopropylamino)ethyl)-1H-pyrazolo[3,4-d]pyrimidin-4-yl)cyclopentanecarboxamide maleate] | 54.0 | 0.631 |  |
| CC(C)N1CCN(CCn2ncc3c(NC(=O)C45CC6CC(CC(C6)C4)C5)ncnc32)CC1.O=C(O)/C=C\C(=O)O [Example 31, N-(1-(2-(4-isopropylpiperazin-1-yl)ethyl)-1H-pyrazolo[3,4-d]pyrimidin-4-yl) 1-adamantylcarboxamide maleate] | 76.8 | 0.573 |  |
| CC(C)N1CCN(CCn2ncc3c(NC(=O)C4CCCC4)ncnc32)CC1.O=C(O)/C=C\C(=O)O [Example 32, N-(1-(2-(4-isopropylpiperazin-1-yl)ethyl)-1H-pyrazolo[3,4-d]pyrimidin-4-yl)cyclopentanecarboxamide maleate] | 63.3 |  | 0.683 |
| CCCNC(=O)Nc1ncnc2c1cnn2CCN1CCCOCC1 [Example 44, 1-(1-(2-(1,4-oxazepan-4-yl)ethyl)-1H-pyrazolo[3,4-d]pyrimidin-4-yl)-3-propylurea] |  | 0.252 |  |
| CC(C)N(CCn1ncc2c(NC(=O)NC(C)(C)C)ncnc21)C(C)C.Cl [Example 61, 1-tert-Butyl-3-(1-(2-(diisopropylamino)ethyl)-1H-pyrazolo[3,4-d]pyrimidin-4-yl)urea hydrochloride] | 25.9 | 0.805 |  |
| O=C(Nc1ccc(Cl)cc1Cl)Nc1ncnc2c1cnn2CCN1CCCCCC1.O=C(O)CC(O)(CC(=O)O)C(=O)O [Example 64, 1-(1-(2-(azepan-1-yl)ethyl)-1H-pyrazolo[3,4-d]pyrimidin-4-yl)-3-(2,4-dichlorophenyl)urea citrate] | 91.4 | 0.108 |  |
| CC(C)(C)CC(C)(C)NC(=O)Nc1ncnc2c1cnn2CCN1CCCCCC1.O=C(O)/C=C\C(=O)O [Example 65, 1-(1-(2-(azepan-1-yl)ethyl)-1H-pyrazolo[3,4-d]pyrimidin-4-yl)-3-(2,4,4-trimethylpentan-2-yl)urea maleate] | 96.8 | 0.0279 |  |
| CCCNC(=O)Nc1ncnc2c1cnn2CCCN1CCCCCC1 [Example 73, 1-(1-(3-(azepan-1-yl)propyl)-1H-pyrazolo[3,4-d]pyrimidin-4-yl)-3-propylurea] |  | 0.102 |  |
| CCCNC(=O)Nc1ncnc2c1cnn2CCN1CCC(C(C)(C)C)CC1 [Example 74, 1-(1-(2-(4-tert-butylpiperidin-1-yl)ethyl)-1H-pyrazolo[3,4-d]pyrimidin-4-yl)-3-propylurea] |  | 0.212 |  |
| CNC(=S)Nc1ncnc2c1cnn2CCN1CCCCCC1.O=C(O)/C=C\C(=O)O [Example 76, 1-(1-(2-(azepan-1-yl)ethyl)-1H-pyrazolo[3,4-d]pyrimidin-4-yl)-3-methylthiourea maleate] | 96.8 | 0.0149 |  |
| CN1CCN(CCCn2ncc3c(NC(=O)C(C)(C)C)ncnc32)CC1 [Example 86, N-(1-(3-(4-methylpiperazin-1-yl)propyl)-1H-pyrazolo[3,4-d]pyrimidin-4-yl)pivalamide] |  | 0.329 |  |
| CCCNC(=O)Nc1ncnc2c1cnn2CCCCN1CCC(C(C)(C)C)CC1 [Example 93, 1-(1-(4-(4-tert-butylpiperidin-1-yl)butyl)-1H-pyrazolo[3,4-d]pyrimidin-4-yl)-3-propylurea] |  | 0.28 |  |
| CC(=O)N(C)c1ncnc2c1cnn2CCN1CCCCCC1 [Example 101, N-(1-(2-(azepan-1-yl)ethyl)-1H-pyrazolo[3,4-d]pyrimidin-4-yl)-N-methylacetamide] |  | 0.221 |  |
| Cc1ccc(C)n1-c1ncnc2c1cnn2CCN1CCCCC1 [Example 105, 4-(2,5-dimethyl-1H-pyrrol-1-yl)-1-(2-(piperidin-1-yl)ethyl)-1H-pyrazolo[3,4-d]pyrimidine] |  | 0.74 |  |
